The values that follow come from patent publication US11220522B2, “Cytotoxic platinum complex, its preparation and therapeutic use” (City University of Hong Kong, priority 2016, dated 2022).

Data set [1] deals with cisplatin-resistant A549cisR cells.
Method: (§1) Human ovarian carcinoma A2780 and cisplatin-resistant A2780cisR cells were cultured in RPMI 1640 with 10% FBS and 100 units penicillin/streptomycin. Human breast adenocarcinoma MCF-7, human colorectal carcinoma HCT116, human lung carcinoma A549, and cisplatin-resistant A549cisR cells were cultured in DMEM containing 10% FBS and 100 units penicillin/streptomycin. Human fetal lung fibroblast MRC-5 cells were cultured in MEM with 10% FBS, 1% L-glutamine, 1% non-essential amino acids, and 1% sodium pyruvate. […] All cells were incubated at 37° C. in 5% CO2.
(§2) For each of these assays, cells were seeded in 96-well plates at a certain density. For instance, A2780 cells were seeded in a 96-well plate at the density of 1,500 cells per well and incubated till the confluence reached about 30%. Cells were then treated with medium containing varying concentrations of compounds for 72 h at 37° C. in 5% CO2. […] For MTT assay, after incubation for 72 h, the medium containing compounds was replaced by FBS-free medium with 1 mg/mL MTT for 4 h incubation. DMSO was added to each well when the medium containing MTT was removed after incubation. The absorbance was measured at 570 and 630 nm. Cells incubated with medium containing 1% DMF only were used as controls. The seeded cell density for A549, MCF-7 and HCT116 was 1,500 cells/well, and for A2780cisR, A549cisR, and MRC-5 was 2,500 cells were seeded to each well. The absorbance was tested at 570 and 630 nm.
(§3) Values are the average of the 96-wells for each tested compound, and the reported errors are the corresponding standard deviations.
Data set [2] concerns Human breast adenocarcinoma MCF-7 cells.
Method: Human breast adenocarcinoma MCF-7, human colorectal carcinoma HCT116, human lung carcinoma A549, and cisplatin-resistant A549cisR cells were cultured in DMEM containing 10% FBS and 100 units penicillin/streptomycin. […] All cells were incubated at 37° C. in 5% CO2.
as §2, §3
The test system of data set [3] is cisplatin-resistant A2780cisR cells.
Method: as §1, §2, §3
Data set [4] concerns Human fetal lung fibroblast MRC-5 cells.
Method: as §1, §2, §3
In data set [5] the test system is Human ovarian carcinoma A2780 cells.
Method: as §1
(§4) For each of these assays, cells were seeded in 96-well plates at a certain density. For instance, A2780 cells were seeded in a 96-well plate at the density of 1,500 cells per well and incubated till the confluence reached about 30%. Cells were then treated with medium containing varying concentrations of compounds for 72 h at 37° C. in 5% CO2. […] For MTT assay, after incubation for 72 h, the medium containing compounds was replaced by FBS-free medium with 1 mg/mL MTT for 4 h incubation. DMSO was added to each well when the medium containing MTT was removed after incubation. The absorbance was measured at 570 and 630 nm. Cells incubated with medium containing 1% DMF only were used as controls. […] The absorbance was tested at 570 and 630 nm. […]
Data set [6] relates to human lung carcinoma A549 cells.
Method: as §1, §4
Data set [7] concerns cisplatin-resistant A2780cisR cells. Description: MTT cytotoxicity assay, A2780cisR cells. Background: Tetrazolium assays rely on reduction of a dye to a coloured formazan, in cell work by metabolically active cells.
Method: as §1, §2, §3
For data set [8], the system named is cisplatin-resistant A549cisR cells. In words: MTT cytotoxicity assay, A549cisR cells.
Method: as §1, §2, §3
Data set [9] deals with human colorectal carcinoma HCT116 cells. In words: MTT cytotoxicity assay, HCT116 cells. The format is cell-based. The settings on record: maximum over the cells tested (HCT116). How it is done: The absorbance was measured at 570 and 630 nm. […].
Data set [10] can be described thus: MTT cytotoxicity assay, MRC-5 normal cells. The settings on record: human, MRC-5 fetal lung fibroblast cells (normal cells).
Method: as §1, §2, §3

Usually IC50 stands for the concentration that gives 50% inhibition. A higher IC50 goes with weaker potency. With Chalcone, the IC50 in data set [1] was above 40 µM; in [2], above 50 µM; in [3] it was above 35 µM; in data set [4] it was 65.1 ± 9 µM; in [5] it was above 35 µM; in [6], above 40 µM.
`N.N.[Cl][Pt][Cl]` [cDDP, cis-diamminedichloroplatinum]: the “RF (Resistant Factor)” value in data set [7] (IC50 in A2780CisR/IC50 in A2780 cells) is 16; in [8] (IC50 in A549cisR/IC50 in A549 cells), 4.3.
For the compound `[NH2][Pt]([NH2])([OH])([Cl])([Cl])[O]C(=O)COc1ccc(/C=C/C(=O)c2ccc(Cl)c(Cl)c2)cc1` [monochalcoPt(IV)], the “fold increase in cytotoxicity compared with cisplatin” value in data set [9] is given as at most 422 fold. Further, the “IC50 (cytotoxicity, MTT assay)” value in [7] (A2780cisR cells, 72 h drug treatment) is on record as “nanomolar”; in data set [8] (A549cisR cells, 72 h drug treatment), “nanomolar”. The half-inhibitory concentration (IC50) at 72 h in [10] is 0.11 ± 0.03 µM.
Consider `[NH2][Pt]([NH2])([Cl])([Cl])([O]C(=O)COc1ccc(/C=C/C(=O)c2ccc(Cl)c(Cl)c2)cc1)[O]C(=O)COc1ccc(/C=C/C(=O)c2ccc(Cl)c(Cl)c2)cc1` [chalcoplatin], for which the IC50 at 72 h in data set [10] was 9 ± 0.4 µM.
